Results: patent US10674724B2, “Method of activating immune response in plants” (priority 2012, dated 2020)

How the values were obtained:
[1] = solubility in water; assay type: physicochemical
[2] = biological target: T1, NPR1 (Arabidopsis thaliana, UniProt P93002); experiment: homologous and heterologous competitive binding curves for the [14C]SA-NPR1 interaction (equilibrium dialysis); conditions: 0.08 μM NPR1, 0.07 μM [14C]SA
T1 construct: made in house; host or cells: E. coli
Description: Given the dissociation reaction:
For the saturation binding curves (FIGS. 1C and 7D/E), 0.8 μM of NPR1 protein was incubated with a final concentration of 0.007-14 μM [^14C]SA. The data was analyzed by non-linear regression using GraphPad PRISM 4 and fitted to a one-site-binding rectangular hyperbola. For homologous and heterologous competitive binding curves (FIGS. 1E/F and 7F/G), 0.08 μM of NPR1 protein was incubated with a final concentration of 0.07 μM [^14C]SA.

[3] = biological target: T1, NPR1; experiment: Sephacryl S300 gel filtration of Strep-tagged NPR1; assay type: biochemical; conditions: 1 mM SA, catechol, 4-hydroxy benzoic acid or methyl-salicylate, 30 min; DTT concentration not given
Description: Strep-tagged purified proteins in a final volume of 2 ml were subjected to gel filtration analysis on the Sephacryl S100 HR or Sephacryl S300 HR packed in 50 cm long HR 16 columns (GE Health) and equilibrated with S300 chromatography buffer (50 mM HEPES, pH 7.4, 250 mM NaCl. Elutions, in 0.5 ml fractions, were performed in the same buffer at a flow rate of 0.8 ml/min. Where indicated, proteins were incubated with 1 mM SA, 1 mM catechol, 1 mM 4-hydroxy benzoic acid, or 1 mM methyl-salicylate at room temperature for 30 min prior to chromatography as described above with the exception that the chromatography buffer was supplemented with 1 mM SA, 1 mM catechol, 1 mM 4-hydroxy benzoic acid, or 1 mM methyl-salicylate, respectively. In the case of the EDTA treatment, NPR1 was stripped of its metal by a 50 mM EDTA treatment of 30 min, followed by an incubation of 30 min with 1 mM SA prior to gel filtration. In this case, the chromatography buffer was supplemented with 1 mM SA.

[4] = biological target: T2, NPR1-dependent oligomer on the PR-1 promoter (Arabidopsis thaliana, UniProt P93002); experiment: Cross-linked-chromatin chromatography (3C Method); assay type: in vivo; conditions: wild-type plants, region −734 to −833
T2 construct: in wild-type plants (WT), such an oligomer forms on the PR-1 promoter; endogenous in cells; host or cells: wild-type Arabidopsis plants
T2 sequence (P93002 1-593): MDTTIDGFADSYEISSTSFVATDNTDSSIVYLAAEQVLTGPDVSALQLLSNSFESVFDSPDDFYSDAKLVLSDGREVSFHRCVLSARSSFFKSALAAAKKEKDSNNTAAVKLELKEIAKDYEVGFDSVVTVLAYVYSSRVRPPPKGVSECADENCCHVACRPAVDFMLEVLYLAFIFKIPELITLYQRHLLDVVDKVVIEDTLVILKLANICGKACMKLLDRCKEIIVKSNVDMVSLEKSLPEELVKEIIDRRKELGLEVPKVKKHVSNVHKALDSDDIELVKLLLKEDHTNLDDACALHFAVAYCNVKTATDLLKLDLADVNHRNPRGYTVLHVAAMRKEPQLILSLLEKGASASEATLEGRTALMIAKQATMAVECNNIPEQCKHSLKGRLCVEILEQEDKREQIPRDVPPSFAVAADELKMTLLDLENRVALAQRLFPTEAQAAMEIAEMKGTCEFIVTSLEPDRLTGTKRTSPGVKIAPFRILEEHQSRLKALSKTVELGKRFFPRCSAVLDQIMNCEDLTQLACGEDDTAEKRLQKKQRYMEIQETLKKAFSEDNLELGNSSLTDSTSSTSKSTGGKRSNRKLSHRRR
Description: Plant treatment, cross-linking, sonication, and cross-linking reversal were performed as for chromatin-immunoprecipitation (Rochon et al., 2006). Chromatography was as described under “Chromatography”. qPCR was performed with PR1 and Ubiquitin5 primers. PR-1 values were normalized against Ubiquitin5 (see Table 1 for primer sequence).
Although there are no decisive methods to test the stoichiometry of a protein in vivo, it was determined whether or not NPR1-dependent oligomers form on DNA in vivo by combining chromatin cross-linking, gel filtration, and qPCR (the 3C Method). The rationale was that, if an NPR1-dependent oligomer forms on the PR1 promoter in vivo, the presence of PR1 should be detectable by qPCR in the void fraction of an S300 after the chromatin had been cross-linked and sheared by sonication.

[5] = tested on: PR-1 expression; experiment: PR-1 expression by quantitative RT-PCR after chemical treatment; assay type: in vivo, Arabidopsis; conditions: 12 hrs
Description: Total RNA was extracted from leaves using the Rneasy plant mini kit (Qiagen) according to the supplier's instructions. After treatment with Dnase I (Invitrogen), first strand cDNA synthesis was generated using SuperScript II reverse transcriptase (Invitrogen), and the (dT)17VN oligo in the presence of 0.4 U Rnasin (Fisher Scientific). The newly-synthesized cDNA was diluted 1/200 to reflect a concentration of 10 ng μL^−1 input total RNA. RT-PCR was performed on a CFX96 spectrofluorometric thermal cycler (BioRad). Firefly luciferase values were normalized against Renilla Luciferase and PR-1 values against Ubiquitin5 (see Table 1 for primer sequence). […] All treatments were for 12 hrs. Values consist of n=3 biological replicates and represent averages±1 SD.

[6] = 300 μM, fold-induction over water

Compound: O=C(O)c1cc(Cl)cc(Cl)c1O [3,5-dichloro SA]
- solubility in water [1]: low solubility in water

Compound: O=C(O)c1cccc(O)c1 [3-hydroxy benzoic acid]
- affinity for NPR1 compared with SA (competitive binding) [2]: do not interact with NPR1 with the same affinity as SA

Compound: O=C(O)c1ccc(Cl)cc1O [4-chloro SA]
- solubility in water [1]: low solubility in water

Compound: O=C(O)c1ccc(O)cc1 [4-hydroxy benzoic acid]
- affinity for NPR1 compared with SA (competitive binding) [2]: do not interact with NPR1 with the same affinity as SA
- conformation of NPR1 (S300 elution profile) [3]: do not alter the conformation of NPR1
- NPR1-dependent oligomer on the PR-1 promoter (void fraction, qPCR) [4]: did not reduce the amount of NPR1-dependent oligomer

Compound: CSC(=O)c1cccc2nnsc12 [BTH, benzo(1,2,3)thiadiazole-7-carbothioic acid S-methyl ester]
- PR-1 expression ([5]; BTH at 100 μM): capacity to induce PR-1 expression
- NPR1-dependent oligomer on the PR-1 promoter (void fraction, qPCR) [4]: reduced the amount of NPR1-dependent oligomer on the PR-1 promoter
- solubility in water [1]: low solubility in water

Compound: O[C@@H](CS)[C@@H](O)CS [DTT]
- conformation of NPR1 (S300 elution profile) [3]: did not induce a redistribution of the protein to the included volume

Compound: O=C(O)c1cc(Cl)nc(Cl)c1 [INA, 2,6-dichloroisonicotinic acid]
- PR-1 expression ([5]; 300 μM): poor inducer of PR-1 expression
- PR-1 induction, times less effective than an identical concentration of 4-chloro SA [5, 6]: 10 times
- PR-1 induction, times less effective than an identical concentration of SA [5, 6]: 42 times
- NPR1-dependent oligomer on the PR-1 promoter (void fraction, qPCR) [4]: did not affect the NPR1-dependent oligomer on the PR-1 promoter
- solubility in water [1]: low solubility in water

Compound: Oc1ccccc1O [catechol]
- affinity for NPR1 compared with SA (competitive binding) [2]: do not interact with NPR1 with the same affinity as SA
- conformation of NPR1 (S300 elution profile) [3]: do not alter the conformation of NPR1
